Source: patent US11369623B2, “Anticancer combination of a CBP/catenin inhibitor and an immune checkpoint inhibitor” (PRISM Pharma Co., Ltd., priority 2015, dated 2022)

How the values were obtained:
bile duct cancer = conditions: cited from earlier work
[1] = cited from earlier work
[2] = test system: 624 mel cells and 928 mel cells; assay: IL-10 production by melanoma cells (ELISA of culture supernatant); type: cell-based, human; conditions: 0.2 μM, 24 hr, FIG. 5
Experimental: IL-10 Production Suppressive Action of CBP/Catenin Inhibitor (Compound 1)
624 mel cells and 928 mel cells were used, which are cell lines (melanoma) established from human malignant melanoma patients by US NIH. These cells have been activated and have IL-10 production ability.
In a culture medium (10% FCS-containing RPMI1640, penicillin and streptomycin added), respective melanoma cells were seeded in a 6-well plate at a concentration of 1×10^5 cells/2 ml/well. After seeding, compound 1 was added to a given concentration and the cells were cultured for 24 hr. After 24 hr, the culture supernatant was recovered, and the concentration of IL-10 in the supernatant was measured. For the measurement of IL-10 concentration, Human IL10 OptEIA ELISA set (BD, #555157) was used.

[3] = test system: 624 mel cells and 928 mel cells; assay: Influence on proliferation of melanoma cells; type: cell-based, human; conditions: 24 hr, any cell
[4] = test system: human breast cancer cell line (MDA-MB-231); assay: Side population (cancer stem cell) fraction of MDA-MB-231 after compound treatment; type: cell-based; conditions: 0.3 μM in culture medium, after 4 days; untreated 1.6% SP cells
Experimental: To a side population fraction (cancer stem cells were considered to have been concentrated) obtained by two-dimensional cell sorting of human breast cancer cell line (MDA-MB-231) with Hoechst Blue and Hoechst Red was added 0.3 μM CBP/catenin inhibitor (compound 2) in the culture medium. After 4 days, the side population fraction almost disappeared (when untreated with medicament, 1.6% SP cells were detected, whereas 0% was detected in compound 2 treatment group), and the cancer stem cells were considered to have differentiated (FIG. 3).

[5] = test system: spontaneous breast cancer of transgenic mouse (MMTV-Wnt-1); assay: Tumor volume in mice serially transplanted with spontaneous breast cancer of transgenic mouse (MMTV-Wnt-1); type: in vivo, mouse (C57BL/6J); conditions: compound A 50 mg/kg twice per day oral, antibody 10 mg/kg twice per week i.p.
Text: Effect of combined use of CBP/catenin inhibitor (compound A) and anti-mouse PD-1 (CD279) antibody in animal model serially transplanted with subcultured spontaneous breast cancer of transgenic mouse (MMTV-Wnt-1)
Spontaneous breast cancer of transgenic mouse (MMTV-Wnt-1), in which Wnt-1 had been locally expressed in mammary gland epithelial cells, was harvested, and serially transplanted to the background line mouse (C57BL/6J) with trocar. When the serially transplanted tumor became about 1.5 g, it was isolated, processed into fragments of about 30 mg, and subcutaneously transplanted to the side of the body of 5 mice (C57BL/6J) per each group. Engraftment of the tumor was confirmed, and compound A (50 mg/kg, twice per day, 21 days, oral administration) and anti-mouse PD-1 antibody (Clone: RMP1-14, BioXCell) (10 mg/kg, twice per week, 3 weeks, intraperitoneal administration) were each administered singly or in combination.
With the day of the start of administration as day 0, the major axis and the minor axis of the tumor developed in each mouse were measured by Digimatic Caliper (Mitsutoyo) on days 4, 7, 11, 14, 18, and 21.
The tumor volume was calculated according to the following formula. tumor volume TV(mm^3)=tumor major axis(mm)×tumor minor axis^2(mm^2)/2

Compound: O=C1[C@H](Cc2ccc(O)cc2)N2C(=O)CCN(C(=O)NCc3ccccc3)[C@H]2CN1Cc1cccc2ccccc12 [ICG-001, (6S,9aS)-N-benzyl-6-[(4-hydroxyphenyl)methyl]-8-(naphthalen-1-ylmethyl)-4,7-dioxo-3,6,9,9a-tetrahydro-2H-pyrazino[1,2-a]pyrimidine-1-carboxamide]
- proliferation inhibitory effect in animal model (bile duct cancer): strong proliferation inhibitory effect

Compound: C[C@H]1[C@H]2N(C(=O)CN(C)N2C(=O)NCc2ccccc2)[C@@H](Cc2ccc(OP(=O)(O)O)cc2)C(=O)N1Cc1cccc2cccnc12 [PRI-724]
- toxicity in human compared with conventional Wnt inhibitors having other mechanisms [1]: clearly less toxic in human than conventional Wnt inhibitors

Compound: C[C@H]1[C@H]2N(C(=O)CN(C)N2C(=O)NCc2ccccc2)[C@@H](Cc2ccc(OP(=O)(O)O)cc2)C(=O)N1Cc1cccc2cccnc12 [compound 1, 4-(((6S,9S,9aS)-1-(benzylcarbamoyl)-2,9-dimethyl-4,7-dioxo-8-(quinolin-8-ylmethyl)octahydro-1H-pyrazino[2,1-c][1,2,4]triazin-6-yl)methyl)phenyl dihydrogen phosphate]
- production of IL-10 [2]: production of IL-10 was suppressed
- influence on the proliferation ([3]; 0.2 μM): an influence on the proliferation was not confirmed
- influence on the proliferation ([3]; 1 μM): an influence on the proliferation was confirmed

Compound: C[C@H]1[C@H]2N(C(=O)CN(C)N2C(=O)NCc2ccccc2)[C@@H](Cc2ccc(O)cc2)C(=O)N1Cc1cccc2cccnc12 [compound 2, (6S,9S,9aS)-N-benzyl-6-(4-hydroxybenzyl)-2,9-dimethyl-4,7-dioxo-8-(quinolin-8-ylmethyl)octahydro-1H-pyrazino[2,1-c][1,2,4]triazine-1-carboxamide]
- SP cells detected (side population fraction) [4]: 0%

Compound: C=CCN1CC(=O)N2[C@@H](Cc3ccc(O)cc3F)C(=O)N(Cc3cccc(N4CC(N5CCN(CC)CC5)C4)n3)C[C@@H]2N1C(=O)NCc1ccccc1 [compound A, (6S,9aS)-N-benzyl-8-((6-(3-(4-ethylpiperazin-1-yl)azetidin-1-yl)pyridin-2-yl)methyl)-6-((2-fluoro-4-hydroxyphenyl)methyl)-4,7-dioxo-2-(prop-2-en-1-yl)-octahydro-1H-pyrazino[2,1-c][1,2,4]triazine-1-carboxamide]
- tumor volume TV, Mean ± SEM ([5]; Day 0): 75.3 ± 9.2 mm^3
- tumor volume TV, Mean ± SEM ([5]; Day 4): 83.2 ± 8.5 mm^3
- tumor volume TV, Mean ± SEM ([5]; Day 7): 90.5 ± 22.3 mm^3
- tumor volume TV, Mean ± SEM ([5]; Day 11): 123.1 ± 40.5 mm^3
- tumor volume TV, Mean ± SEM ([5]; Day 14): 140.4 ± 45.1 mm^3
- tumor volume TV, Mean ± SEM ([5]; Day 18): 221.6 ± 47.9 mm^3
- tumor volume TV, Mean ± SEM ([5]; Day 21): 237.7 ± 41.2 mm^3
